Assay results as given in paper PMC6516726 (ACS Catalysis, 2018).
pKd: −log10 of the molar value. Read-outs that look alike come from different tables or passages of the source.

What was measured:
PETNR = target: PETNR; design: method as in earlier work; conditions: PETNR−coenzyme analogue complex; cited from earlier work
L25A PETNR = L25A PETNR (Enterobacter cloacae, UniProt P71278, L26A); conditions: for A2 (amplitude of kobs2 out of total absorbance change) / kobs1 / kobs2: pH 7.0
L25I PETNR = L25I PETNR (Enterobacter cloacae, UniProt P71278, L26I); conditions: for kobs1 / A2 (amplitude of kobs2 out of total absorbance change) / kobs2: 10 mM NADPH or 25 mM NADH, pH 7.0
WT PETNR [1] = target: T1, WT PETNR (Enterobacter cloacae, UniProt P71278); assay: pH dependence of FMN reduction of WT PETNR in MTEN buffer; assay type: biochemical, Enterobacter Cloacae PB2; design: made in house
Description: (R)-[4-2H]-NADPH at pH 6, pH 7 and pH9 (A) and the corresponding temperature dependencies of the observed primary kinetic isotope effects (B). The measurements were performed in MTEN buffer (50 mM MES, 25 mM Tris, 25 mM ethanola-mine, and 100 mM NaCl), which has a useful buffering capacity and minimal change in ionic strength over the pH range 6-9 in which PETNR is stable; we attempted testing PETNR in pH 5 as well, but the enzyme is unstable at this pH. The observed rate constants of FMN reduction at pH 7 in MTEN buffer are essentially the same to those measured in 50 mM potassium phosphate buffer, pH 7 and similar observation are valid for the KIEs values (Table S3).The rate of FMN reduction is essentially insensitive to pH across the whole temperature range (5-40 °C), and also that KIEs values are essentially not affected by changes in pH (the rate of FMN reduction by (R)-[4-2H]-NADPH is independent of pH as well across all temperatures studied; see Table S3 for extracted thermodynamic parameters). Although these experiments cannot completely exclude any kinetic […]
of H-transfer and protonation (which would lead to pH-dependent rates) which makes it very likely that the observed rate are reporting directly on the H-transfer step.
Table S3. Extracted Thermodynamic Parameters from pH Dependence Studies.
(kJ mol-1) (J mol-1 K-1) (kJ mol-1 K-1)

WT PETNR [2] = target: T1, WT PETNR; assay: Stopped-flow FMN reduction (reductive half-reaction, hydride transfer) of WT PETNR by coenzyme; conditions: for kobs1 / A2 (amplitude of kobs2 out of total absorbance change) / kobs2: 10 mM NADPH or 25 mM NADH, pH 7.0
[3] = 5 °C, 10 mM NADPH or 25 mM NADH
[4] = 10 °C, 10 mM NADPH or 25 mM NADH
[5] = 20 °C, 10 mM NADPH or 25 mM NADH
[6] = 25 °C, 50 mM potassium phosphate pH 7.0, 20 μM enzyme, fast phase
[7] = 25 °C, 10 mM NADPH or 25 mM NADH
[8] = 30 °C, 10 mM NADPH or 25 mM NADH
[9] = 35 °C, 10 mM NADPH or 25 mM NADH
[10] = 40 °C, third phase, 10 mM NADPH or 25 mM NADH
[11] = 40 °C, 10 mM NADPH or 25 mM NADH
[12] = T0 = 298 K, fit of kobs1 (5–40 °C) to eq 1
[13] = 25 °C, 50 mM potassium phosphate pH 7.0, 20 μM enzyme

T1 sequence (P71278 entry or part of it): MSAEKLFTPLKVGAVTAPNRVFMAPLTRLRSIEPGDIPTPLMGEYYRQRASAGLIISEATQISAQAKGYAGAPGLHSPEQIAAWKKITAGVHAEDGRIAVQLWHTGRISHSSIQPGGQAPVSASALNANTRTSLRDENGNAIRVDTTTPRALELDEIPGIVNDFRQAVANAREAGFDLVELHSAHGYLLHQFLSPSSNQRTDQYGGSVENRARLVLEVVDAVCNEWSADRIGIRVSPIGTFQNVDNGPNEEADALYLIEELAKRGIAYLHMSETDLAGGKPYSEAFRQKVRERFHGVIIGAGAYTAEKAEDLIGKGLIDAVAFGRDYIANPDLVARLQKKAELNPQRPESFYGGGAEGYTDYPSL
L25I PETNR, sequence (P71278 entry or part of it L26I): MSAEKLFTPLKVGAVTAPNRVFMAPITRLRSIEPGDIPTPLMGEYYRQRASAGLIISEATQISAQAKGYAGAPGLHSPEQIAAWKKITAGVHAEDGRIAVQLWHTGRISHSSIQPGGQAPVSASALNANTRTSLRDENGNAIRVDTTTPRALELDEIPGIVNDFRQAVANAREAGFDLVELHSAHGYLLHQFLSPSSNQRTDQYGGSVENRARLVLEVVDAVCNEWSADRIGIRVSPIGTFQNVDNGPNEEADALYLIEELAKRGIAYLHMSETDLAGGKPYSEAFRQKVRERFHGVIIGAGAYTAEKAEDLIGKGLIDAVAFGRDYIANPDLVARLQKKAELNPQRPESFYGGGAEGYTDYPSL
L25A PETNR, sequence (P71278 entry or part of it L26A): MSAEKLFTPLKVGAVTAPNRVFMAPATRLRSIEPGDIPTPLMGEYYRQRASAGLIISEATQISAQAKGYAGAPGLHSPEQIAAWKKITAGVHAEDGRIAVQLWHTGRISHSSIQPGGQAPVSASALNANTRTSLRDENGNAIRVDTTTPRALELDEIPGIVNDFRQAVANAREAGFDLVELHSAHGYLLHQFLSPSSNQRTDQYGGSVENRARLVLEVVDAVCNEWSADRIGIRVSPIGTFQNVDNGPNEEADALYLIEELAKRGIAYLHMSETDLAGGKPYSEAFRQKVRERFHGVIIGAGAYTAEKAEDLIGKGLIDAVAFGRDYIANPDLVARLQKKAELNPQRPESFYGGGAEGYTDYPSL

In the case of `NC(=O)C1=CN([C@@H]2O[C@H](COP(=O)(O)OP(=O)(O)OC[C@H]3O[C@@H](n4cnc5c(N)ncnc54)[C@H](OP(=O)(O)O)[C@@H]3O)[C@@H](O)[C@H]2O)CCC1` [NADPH4], the pKd (PETNR) is listed as 3.89.

With `NC(=O)C1=CN([C@@H]2O[C@H](COP(=O)(O)OP(=O)(O)OC[C@H]3O[C@@H](n4cnc5c(N)ncnc54)[C@H](OP(=O)(O)O)[C@@H]3O)[C@@H](O)[C@H]2O)C=CC1` [NADPH] the “A2 (amplitude of kobs2 out of total absorbance change)” value (L25A PETNR; [3]) was 2.93 ± 0.55%, the kobs1 (L25A PETNR; [3]) was 19.18 ± 0.22 s⁻¹ and the “A2 (amplitude of kobs2 out of total absorbance change)” value (L25A PETNR; [4]) was 2.70 ± 0.56%. The kobs1 (L25A PETNR; [4]) was 26.03 ± 0.17 s⁻¹, the kobs1 (L25A PETNR; 15 °C, 10 mM NADPH or 25 mM NADH) was 34.93 ± 1.25 s⁻¹ and the “A2 (amplitude of kobs2 out of total absorbance change)” value (L25A PETNR; [5]) was 3.58 ± 0.47%. The kobs2 (L25A PETNR; [5]) was 2.42 ± 0.48 s⁻¹, the “increase in KS vs WT PETNR” value (L25A PETNR; 25 °C) was 2 fold and the kred (L25A PETNR; [6]) was 55.75 ± 0.35 s^–1. The “rate of H-transfer, faster than WT PETNR” value (L25A PETNR; 25 °C, kred vs WT) was 60%, the “A2 (amplitude of kobs2 out of total absorbance change)” value (L25A PETNR; [7]) was 4.73 ± 0.26% and the kobs1 (L25A PETNR; [7]) was 53.77 ± 1.15 s⁻¹. The kobs2 (L25A PETNR; [7]) was 1.54 ± 0.45 s⁻¹, the “A2 (amplitude of kobs2 out of total absorbance change)” value (L25A PETNR; [8]) was 7.50 ± 0.21% and the kobs1 (L25A PETNR; [8]) was 59.63 ± 2.29 s⁻¹. For the same compound, the “A2 (amplitude of kobs2 out of total absorbance change)” value (L25A PETNR; [9]) was 16.48 ± 0.53%, the kobs1 (L25A PETNR; [9]) was 68.39 ± 8.69 s⁻¹ and the kobs2 (L25A PETNR; [9]) was 0.51 ± 0.17 s⁻¹. The “A3 (amplitude of third phase)” value (L25A PETNR; [10]) was 19.34 ± 0.54%, the kobs3 (L25A PETNR; [10]) was 3.55 ± 1.03 and the “A2 (amplitude of kobs2 out of total absorbance change)” value (L25A PETNR; [11]) was 25.54 ± 0.91%. The kobs1 (L25A PETNR; [11]) was 71.16 ± 6.56 s⁻¹, the kobs2 (L25A PETNR; [11]) was 0.26 ± 0.06 s⁻¹ and the “total absorbance change attributed to kobs2” value (L25A PETNR; 40 °C, sum of two slow phases (kobs2 and kobs3)) was roughly 40%. The “ΔCp^⧧” value (L25A PETNR; [12]) was “–0.92 ± 0.12 kJ mol^–1 K^–1”, the “ΔHT0^⧧” value (L25A PETNR; [12]) was 23.3 ± 1.2 kJ mol^–1 and the “ΔST0^⧧” value (L25A PETNR; [12]) was “–133.7 ± 4.1 J mol^–1 K^–1”. The kobs1 (L25I PETNR; 5 °C) was 10.12 ± 0.04 s⁻¹, the kobs1 (L25I PETNR; 10 °C) was 13.47 ± 0.06 s⁻¹ and the kobs1 (L25I PETNR; 15 °C) was 18.07 ± 0.05 s⁻¹. The “A2 (amplitude of kobs2 out of total absorbance change)” value (L25I PETNR; 20 °C) was 3.28 ± 1.62%, the kobs1 (L25I PETNR; 20 °C) was 24.33 ± 0.52 s⁻¹ and the kobs2 (L25I PETNR; 20 °C) was 2.25 ± 2.63 s⁻¹. The KS (L25I PETNR; [13]) was 130 ± 8 µM, the kred (L25I PETNR; [6]) was 29.49 ± 0.49 s^–1 and the kobs1 (L25I PETNR; 25 °C) was 30.24 ± 0.42 s⁻¹. The kobs1 (L25I PETNR; 30 °C) was 36.74 ± 0.28 s⁻¹, the kobs2 (L25I PETNR; 30 °C) was 2.57 ± 0.62 s⁻¹ and the “A2 (amplitude of kobs2 out of total absorbance change)” value (L25I PETNR; 35 °C) was 5.72 ± 0.36%. For the same compound, the “A2 (amplitude of kobs2 out of total absorbance change)” value (L25I PETNR; 40 °C) was 10.89 ± 0.63%, the kobs1 (L25I PETNR; 40 °C) was 49.82 ± 1.14 s⁻¹ and the “ΔCp^⧧” value (L25I PETNR; [12]) was “–0.43 ± 0.07 kJ mol^–1 K^–1”. For the same compound, the “ΔHT0^⧧” value (L25I PETNR; [12]) was 30.4 ± 0.6 kJ mol^–1, the “ΔST0^⧧” value (L25I PETNR; [12]) was “–114.9 ± 2.0 J mol^–1 K^–1” and the “ΔCp⧧” value (WT PETNR [1]; pH 6, MTEN buffer) was -0.58 ± 0.10 kJ mol-1 K-1. For the same compound, the “ΔHT0⧧” value (WT PETNR [1]; pH 6, MTEN buffer) was 6.5 ± 0.14 kcal/mol, the “ΔST0⧧” value (WT PETNR [1]; pH 6, MTEN buffer) was -124.3 ± 2.0 J mol-1 K-1 and the “ΔCp⧧” value (WT PETNR [1]; pH 7, MTEN buffer) was -0.61 ± 0.08 kJ mol-1 K-1. The “ΔHT0⧧” value (WT PETNR [1]; pH 7, MTEN buffer) was 6.6 ± 0.17 kcal/mol, the “ΔST0⧧” value (WT PETNR [1]; pH 7, MTEN buffer) was -122.7 ± 1.6 J mol-1 K-1 and the “ΔCp⧧” value (WT PETNR [1]; pH 9, MTEN buffer) was -0.45 ± 0.12 kJ mol-1 K-1. The “ΔHT0⧧” value (WT PETNR [1]; pH 9, MTEN buffer) was 6.91 ± 0.17 kcal/mol, the “ΔST0⧧” value (WT PETNR [1]; pH 9, MTEN buffer) was -118.6 ± 2.3 J mol-1 K-1 and the kobs1 (WT PETNR [2]; 5 °C) was 11.31 ± 0.09 s⁻¹. For the same compound, the kobs1 (WT PETNR [2]; 10 °C) was 15.23 ± 0.15 s⁻¹, the kobs1 (WT PETNR [2]; 15 °C) was 20.32 ± 0.25 s⁻¹ and the kobs1 (WT PETNR [2]; 20 °C) was 26.28 ± 0.31 s⁻¹. It also gave a KS (WT PETNR [2]; [13]) of 103 ± 4 µM, a kred (WT PETNR [2]; [6]) of 33.43 ± 0.22 s^–1 and a kobs1 (WT PETNR [2]; 25 °C) of 33.74 ± 0.46 s⁻¹. For the same compound, the “A2 (amplitude of kobs2 out of total absorbance change)” value (WT PETNR [2]; 35 °C) was 1.41 ± 0.23%, the kobs1 (WT PETNR [2]; 35 °C) was 50.46 ± 0.75 s⁻¹ and the kobs2 (WT PETNR [2]; 35 °C) was 1.19 ± 0.92 s⁻¹. For the same compound, the “A2 (amplitude of kobs2 out of total absorbance change)” value (WT PETNR [2]; 40 °C) was 2.29 ± 0.35%, the kobs1 (WT PETNR [2]; 40 °C) was 58.49 ± 0.50 s⁻¹ and the kobs2 (WT PETNR [2]; 40 °C) was 1.09 ± 0.16 s⁻¹. For the same compound, the “ΔCp^⧧” value (WT PETNR [2]; [12]) was “–0.50 ± 0.05 kJ mol^–1 K^–1”, the “ΔHT0^⧧” value (WT PETNR [2]; [12]) was 30.4 ± 0.3 kJ mol^–1 and the “ΔST0^⧧” value (WT PETNR [2]; [12]) was “–113.9 ± 0.9 J mol^–1 K^–1”.
